Experiments:
Experiment in all cases: combination Emax (second highest fraction inhibited in the dose matrix, 72 h); higher = more inhibition; extreme values may be limits of the assay
[1] = test system: COLO-680N (Esophageal Squamous Cell Carcinoma)
In short: (§1)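 Bliss excess equals the observed combination effect minus the expected value EA + EB − EA·EB, where EA and EB are the effects of each agent alone. Combination Emax is the second-highest inhibition within the matrix. Inhibition was scaled from CellTiter-Glo 2.0 luminescence, with 0 set by vehicle wells and 1 by blank wells, after 72 hours of two-drug dosing of cells plated in 1536-well plates.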

[2] = test system: MFE-280 (Endometrial Carcinoma)
In short: as §1

[3] = test system: NCI-H2342 (Lung Adenocarcinoma)
In short: as §1

[4] = test system: OPM-2 (Plasma Cell Myeloma)
In short: as §1

[5] = test system: OVMIU (Ovarian Carcinoma)
In short: as §1

[6] = test system: RCM-1 (Colorectal Carcinoma)
In short: as §1

[7] = test system: REH (B-Lymphoblastic Leukemia)
In short: as §1

[8] = test system: SK-MEL-2 (Melanoma)
In short: as §1

SMILES | combination Emax [1] | combination Emax [2] | combination Emax [3] | combination Emax [4] | combination Emax [5] | combination Emax [6] | combination Emax [7] | combination Emax [8]
C=CCn1c(=O)c2cnc(Nc3ccc(N4CCN(C)CC4)cc3)nc2n1-c1cccc(C(C)(C)O)n1 [AZD1775] + CCc1c2c(nc3ccc(O)cc13)-c1cc3c(c(=O)n1C2)COC(=O)[C@]3(O)CC [SN-38] (first compound max 1 µM, partner max 0.3 µM) | 0.483 | 0.87 | 0.737 | 0.954 | 0.587 | 0.775 | 0.989 | 0.619
C=CCn1c(=O)c2cnc(Nc3ccc(N4CCN(C)CC4)cc3)nc2n1-c1cccc(C(C)(C)O)n1 [AZD1775] + Nc1ccn([C@@H]2O[C@H](CO)[C@@H](O)C2(F)F)c(=O)n1 [Gemcitabine] (first compound max 1 µM, partner max 0.3 µM) | 0.419 | 0.655 | 0.784 | 0.953 | 0.608 | 0.593 | 0.999 | 0.507
CN(CCO)CC[C@H](CSc1ccccc1)Nc1ccc(S(=O)(=O)NC(=O)c2ccc(N3CCC([C@@H](O)c4ccccc4-c4ccc(Cl)cc4)CC3)cc2)cc1S(=O)(=O)C(F)(F)F [AZD4320] + CC(=O)O[C@H]1C(=O)[C@@]2(C)[C@H]([C@H](OC(=O)c3ccccc3)[C@]3(O)C[C@H](OC(=O)[C@H](O)[C@@H](NC(=O)c4ccccc4)c4ccccc4)C(C)=C1C3(C)C)[C@]1(OC(C)=O)CO[C@@H]1C[C@@H]2O [Paclitaxel] (first compound max 1 µM, 7x7, partner max 3 µM) | 0.771 | 0.979 | 0.977 | 1 | 0.929 | 0.54 | 1 | 0.915
CN(CCO)CC[C@H](CSc1ccccc1)Nc1ccc(S(=O)(=O)NC(=O)c2ccc(N3CCC([C@@H](O)c4ccccc4-c4ccc(Cl)cc4)CC3)cc2)cc1S(=O)(=O)C(F)(F)F [AZD4320] + CS(=O)(=O)CCNCc1ccc(-c2ccc3ncnc(Nc4ccc(OCc5cccc(F)c5)c(Cl)c4)c3c2)o1 [Lapatinib] (first compound max 1 µM, 7x7, partner max 10 µM) | 0.481 | 0.962 | 0.368 | 0.938 | 0.971 | 0.901 | 1 | 0.27
CN(CCO)CC[C@H](CSc1ccccc1)Nc1ccc(S(=O)(=O)NC(=O)c2ccc(N3CCC([C@@H](O)c4ccccc4-c4ccc(Cl)cc4)CC3)cc2)cc1S(=O)(=O)C(F)(F)F [AZD4320] + Nc1ccn([C@@H]2O[C@H](CO)[C@@H](O)C2(F)F)c(=O)n1 [Gemcitabine] (first compound max 1 µM, 7x7, partner max 0.3 µM) | 0.3 | 0.8 | 0.403 | 0.628 | 0.596 | 0.37 | 1 | 0.0969
Cc1c2c(nn1C)CSCc1cc(n(C)n1)CSc1cc(c3ccccc3c1)OCCCc1c(C(=O)O)n(C)c3c-2c(Cl)ccc13 [AZD5991] + CC(=O)O[C@H]1C(=O)[C@@]2(C)[C@H]([C@H](OC(=O)c3ccccc3)[C@]3(O)C[C@H](OC(=O)[C@H](O)[C@@H](NC(=O)c4ccccc4)c4ccccc4)C(C)=C1C3(C)C)[C@]1(OC(C)=O)CO[C@@H]1C[C@@H]2O [Paclitaxel] (first compound max 1 µM, 7x7, partner max 3 µM) | 0.476 | 0.574 | 0.988 | 1 | 0.735 | 0.342 | 1 | 1
Cc1c2c(nn1C)CSCc1cc(n(C)n1)CSc1cc(c3ccccc3c1)OCCCc1c(C(=O)O)n(C)c3c-2c(Cl)ccc13 [AZD5991] + CS(=O)(=O)CCNCc1ccc(-c2ccc3ncnc(Nc4ccc(OCc5cccc(F)c5)c(Cl)c4)c3c2)o1 [Lapatinib] (first compound max 1 µM, 7x7, partner max 10 µM) | 0.291 | 0.347 | 0.34 | 1 | 0.687 | 0.409 | 0.862 | 0.955
Cc1c2c(nn1C)CSCc1cc(n(C)n1)CSc1cc(c3ccccc3c1)OCCCc1c(C(=O)O)n(C)c3c-2c(Cl)ccc13 [AZD5991] + Nc1ccn([C@@H]2O[C@H](CO)[C@@H](O)C2(F)F)c(=O)n1 [Gemcitabine] (first compound max 1 µM, 7x7, partner max 0.3 µM) | 0.365 | 0.468 | 0.636 | 1 | 0.551 | 0.392 | 0.984 | 0.925
C[C@@H]1COCCN1c1cc(C2([S@](C)(=N)=O)CC2)nc(-c2ccnc3[nH]ccc23)n1 [AZD6738] + C1CC(C1)(C(=O)[O-])C(=O)[O-].N.N.[Pt+2] [Carboplatin] (first compound max 10 µM, 7x7, partner max 10 µM) | 0.287 | 0.302 | 0.492 | 0.828 | 0.547 | 0.638 | 0.629 | 0.201
C[C@@H]1COCCN1c1cc(C2([S@](C)(=N)=O)CC2)nc(-c2ccnc3[nH]ccc23)n1 [AZD6738] + Nc1ccn([C@@H]2O[C@H](CO)[C@@H](O)C2(F)F)c(=O)n1 [Gemcitabine] (first compound max 10 µM, 7x7, partner max 0.3 µM) | 0.529 | 0.864 | 0.85 | 0.942 | 0.517 | 0.744 | 0.994 | 0.454
Cc1cc2ncnn2cc1Nc1ncc2c(n1)n(C1CCOCC1)c(=O)n2C [AZD7648] + COc1cc([C@@H]2c3cc4c(cc3[C@@H](O[C@@H]3O[C@@H]5CO[C@@H](C)O[C@H]5[C@H](O)[C@H]3O)[C@H]3COC(=O)[C@H]23)OCO4)cc(OC)c1O [Etoposide] (first compound max 10 µM, 7x7, partner max 10 µM) | 0.404 | 0.889 | 0.569 | 0.788 | 0.498 | 0.515 | 0.976 | 0.166
C[C@@H](Nc1cc(F)cc(F)c1)c1cc(C(=O)N(C)C)cc2c(=O)cc(N3CCOCC3)oc12 [AZD8186] + C1CN(CCC1(C(=O)N[C@@H](CCO)C2=CC=C(C=C2)Cl)N)C3=NC=NC4=C3C=CN4 [AZD5363] (first compound max 10 µM, 7x7, partner max 10 µM) | 0.245 | 0.546 | 0.286 | 0.922 | 0.509 | 0.233 | 0.452 | 0.113
C[C@@H](Nc1cc(F)cc(F)c1)c1cc(C(=O)N(C)C)cc2c(=O)cc(N3CCOCC3)oc12 [AZD8186] + CC(=O)c1c(C)c2cnc(Nc3ccc(N4CCNCC4)cn3)nc2n(C2CCCC2)c1=O [Palbociclib] (first compound max 10 µM, 7x7, partner max 10 µM) | 0.419 | 0.518 | 0.337 | 0.563 | 0.497 | 0.335 | 0.625 | 0
C[C@@H](Oc1cc(-c2cnn(C3CCNCC3)c2)cnc1N)c1c(Cl)ccc(F)c1Cl [Crizotinib] + CC1=C(C(=CC=C1)Cl)NC(=O)C2=CN=C(S2)NC3=CC(=NC(=N3)C)N4CCN(CC4)CCO [Dasatinib] (first compound max 10 µM, 7x7, partner max 2 µM) | 0.869 | 0.661 | 0.37 | 0.964 | 0.933 | 0.61 | 0.752 | 0.0969
C[C@@H](Oc1cc(-c2cnn(C3CCNCC3)c2)cnc1N)c1c(Cl)ccc(F)c1Cl [Crizotinib] + Cn1cnc2c(F)c(Nc3ccc(Br)cc3Cl)c(C(=O)NOCCO)cc21 [Selumetinib] (first compound max 10 µM, 7x7, partner max 10 µM) | 0.319 | 0.28 | 0.285 | 0.985 | 0.498 | 0.761 | 0.721 | 0.881
CS(=O)(=O)CCNCc1ccc(-c2ccc3ncnc(Nc4ccc(OCc5cccc(F)c5)c(Cl)c4)c3c2)o1 [Lapatinib] + Cn1cnc2c(F)c(Nc3ccc(Br)cc3Cl)c(C(=O)NOCCO)cc21 [Selumetinib] (first compound max 10 µM, 7x7, partner max 10 µM) | 0.408 | 0.274 | 0.257 | 0.533 | 0.671 | 0.754 | 0.237 | 0.793
O=C(c1cc(Cc2n[nH]c(=O)c3ccccc23)ccc1F)N1CCN(C(=O)C2CC2)CC1 [Olaparib] + CC1(C)CCC(CN2CCN(c3ccc(C(=O)NS(=O)(=O)c4ccc(NCC5CCOCC5)c([N+](=O)[O-])c4)c(Oc4cnc5[nH]ccc5c4)c3)CC2)=C(c2ccc(Cl)cc2)C1 [Venetoclax] (first compound max 10 µM, 7x7, partner max 1 µM) | 0.0836 | 0.169 | 0.158 | 0.256 | 0.114 | 0.0674 | 0.966 | 0.162
O=C(c1cc(Cc2n[nH]c(=O)c3ccccc23)ccc1F)N1CCN(C(=O)C2CC2)CC1 [Olaparib] + CN(CC[C@H](CSC1=CC=CC=C1)NC2=C(C=C(C=C2)S(=O)(=O)NC(=O)C3=CC=C(C=C3)N4CCC(CC4)[C@H](C5=CC=CC=C5C6=CC=C(C=C6)Cl)O)S(=O)(=O)C(F)(F)F)CCO [AZD4320] (first compound max 10 µM, 7x7, partner max 1 µM) | 0.11 | 0.598 | 0.178 | 0.337 | 0.22 | 0.17 | 0.986 | 0.234
O=C(c1cc(Cc2n[nH]c(=O)c3ccccc23)ccc1F)N1CCN(C(=O)C2CC2)CC1 [Olaparib] + COc1nnc2ccc(N3CCC(c4ccc(OCCN5CCN(C)C(=O)[C@H]5C)cc4)CC3)nn12 [AZD5153] (first compound max 10 µM, 7x7, partner max 1 µM) | 0.27 | 0.397 | 0.289 | 1 | 0.603 | 0.522 | 0.762 | 0.53
O=C(c1cc(Cc2n[nH]c(=O)c3ccccc23)ccc1F)N1CCN(C(=O)C2CC2)CC1 [Olaparib] + Cc1c2c(nn1C)CSCc1cc(n(C)n1)CSc1cc(c3ccccc3c1)OCCCc1c(C(=O)O)n(C)c3c-2c(Cl)ccc13 [AZD5991] (first compound max 10 µM, 7x7, partner max 1 µM) | 0.0855 | 0.181 | 0.239 | 1 | 0.104 | 0.0639 | 0.943 | 0.902
